Test results from PubChem BioAssay (NCI).
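Step 1: Grow cells in 96-well plates. Step 2: Expose to compound for 48 hours at 5 concentrations. Step 3: Interpolate endpoints linearly; if unreached, use highest concentration. GI50 = concentration required for 50% inhibition of growth. Definition used: TGI = concentration required for complete inhibition of growth.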

Legend:
Experiment in all cases: growth of human tumour cells (NCI), 48 h
NCI-H460 lung = system: NCI-H460 lung
HOP-62 NSCLC = system: HOP-62 NSCLC
MOLT-4 leukemia = system: MOLT-4 leukemia
HL-60(TB) leukemia = system: HL-60(TB) leukemia
KM12 colon = system: KM12 colon
SK-OV-3 ovarian = system: SK-OV-3 ovarian
786-0 renal = system: 786-0 renal
RPMI-8226 leukemia = system: RPMI-8226 leukemia
SN12C renal = system: SN12C renal
IGROV1 ovarian = system: IGROV1 ovarian
MDA-MB-231 breast = system: MDA-MB-231 breast
SF-268 CNS = system: SF-268 CNS
BT-549 breast = system: BT-549 breast
UO-31 renal = system: UO-31 renal
SW-620 colon = system: SW-620 colon
NCI-H226 lung = system: NCI-H226 lung
HCC-2998 colon = system: HCC-2998 colon
LOX IMVI melanoma = system: LOX IMVI melanoma
SNB-75 CNS = system: SNB-75 CNS
SK-MEL-5 melanoma = system: SK-MEL-5 melanoma
MALME-3M melanoma = system: MALME-3M melanoma
OVCAR-8 ovarian = system: OVCAR-8 ovarian
HT29 colon = system: HT29 colon
DU-145 prostate = system: DU-145 prostate
HOP-92 NSCLC = system: HOP-92 NSCLC
ACHN renal = system: ACHN renal
PC-3 prostate = system: PC-3 prostate
SF-539 CNS = system: SF-539 CNS
SR leukemia = system: SR leukemia
CAKI-1 renal = system: CAKI-1 renal
HCT-15 colon = system: HCT-15 colon
NCI-H522 lung = system: NCI-H522 lung
M14 melanoma = system: M14 melanoma
CCRF-CEM leukemia = system: CCRF-CEM leukemia
OVCAR-5 ovarian = system: OVCAR-5 ovarian
RXF 393 renal = system: RXF 393 renal
A498 renal = system: A498 renal
NCI/ADR-RES ovarian = system: NCI/ADR-RES ovarian
MDA-MB-435 = system: MDA-MB-435
U251 CNS = system: U251 CNS
SK-MEL-2 melanoma = system: SK-MEL-2 melanoma
SF-295 CNS = system: SF-295 CNS
K-562 leukemia = system: K-562 leukemia
EKVX NSCLC = system: EKVX NSCLC
SK-MEL-28 melanoma = system: SK-MEL-28 melanoma
OVCAR-4 ovarian = system: OVCAR-4 ovarian
COLO 205 colon = system: COLO 205 colon
HS 578T breast = system: HS 578T breast
UACC-62 melanoma = system: UACC-62 melanoma
UACC-257 melanoma = system: UACC-257 melanoma
A549 NSCLC = system: A549 NSCLC
TK-10 renal = system: TK-10 renal
MCF7 breast = system: MCF7 breast

## Cc1ccc(-c2cc3nc(C(Cl)Cl)nc(-c4ccco4)n3n2)cc1
NCI-H460 lung
  GI50: 352 nM
  TGI: 1470 nM
HOP-62 NSCLC
  GI50: 298 nM
  TGI: 3.82 µM
MOLT-4 leukemia
  GI50: > 100000 nM
  TGI: > 100 µM
HL-60(TB) leukemia
  GI50: 348 nM
  TGI: 3250 nM
KM12 colon
  GI50: 1810 nM
  TGI: 5.52 µM
SK-OV-3 ovarian
  GI50: 3.09 µM
  TGI: > 100 µM
786-0 renal
  GI50: 2030 nM
  TGI: > 100000 nM
RPMI-8226 leukemia
  GI50: 2380 nM
  TGI: > 100 µM
SN12C renal
  GI50: > 100000 nM
  TGI: > 100 µM
IGROV1 ovarian
  GI50: 2650 nM
  TGI: > 100 µM
MDA-MB-231 breast
  GI50: 289 nM
  TGI: 1850 nM
SF-268 CNS
  GI50: 1650 nM
  TGI: > 100000 nM
BT-549 breast
  GI50: > 100000 nM
  TGI: > 100 µM
UO-31 renal
  GI50: 523 nM
  TGI: 3990 nM
SW-620 colon
  GI50: 583 nM
  TGI: > 100 µM
NCI-H226 lung
  GI50: > 100000 nM
  TGI: > 100 µM
HCC-2998 colon
  GI50: 321 nM
  TGI: 1400 nM
LOX IMVI melanoma
  GI50: > 100 µM
  TGI: > 100 µM
SNB-75 CNS
  GI50: 186 nM
  TGI: 1710 nM
SK-MEL-5 melanoma
  GI50: > 100000 nM
  TGI: > 100 µM
MALME-3M melanoma
  GI50: > 100000 nM
  TGI: > 100000 nM
OVCAR-8 ovarian
  GI50: 604 nM
  TGI: > 100000 nM
HT29 colon
  GI50: 328 nM
  TGI: 1230 nM
DU-145 prostate
  GI50: 404 nM
  TGI: 2350 nM
HOP-92 NSCLC
  GI50: 339 nM
  TGI: 2690 nM
ACHN renal
  GI50: 273 nM
  TGI: 1360 nM
PC-3 prostate
  GI50: 506 nM
  TGI: 4.49 µM
SF-539 CNS
  GI50: 927 nM
  TGI: 3.33 µM
SR leukemia
  GI50: > 100000 nM
  TGI: > 100 µM
CAKI-1 renal
  GI50: 832 nM
  TGI: 4.74 µM
HCT-15 colon
  GI50: 845 nM
  TGI: > 100 µM
NCI-H522 lung
  GI50: > 100000 nM
  TGI: > 100000 nM
M14 melanoma
  GI50: > 100000 nM
  TGI: > 100000 nM
CCRF-CEM leukemia
  GI50: > 100000 nM
  TGI: > 100 µM

## Cc1[nH]c(C(=O)Nc2ccccc2OCc2cccc(C(=O)NC3CCCNC3)c2)c(Cl)c1Cl (centres undefined)
SK-OV-3 ovarian
  GI50: 8.91 µM
  TGI: 26.9 µM
OVCAR-5 ovarian
  GI50: 1640 nM
  TGI: 3.06 µM
SN12C renal
  GI50: 1900 nM
  TGI: 3.72 µM
MDA-MB-231 breast
  GI50: 1750 nM
  TGI: 3380 nM
BT-549 breast
  GI50: 2630 nM
  TGI: 9.75 µM
NCI-H226 lung
  GI50: 2010 nM
  TGI: 5.31 µM
HCC-2998 colon
  GI50: 2010 nM
  TGI: 3730 nM
RXF 393 renal
  GI50: 1480 nM
  TGI: 3100 nM
A498 renal
  GI50: 1800 nM
  TGI: 5.59 µM
NCI/ADR-RES ovarian
  GI50: 2960 nM
  TGI: 9.88 µM
SK-MEL-5 melanoma
  GI50: 1710 nM
  TGI: 3.11 µM
MDA-MB-435
  GI50: 1740 nM
  TGI: 3240 nM
ACHN renal
  GI50: 1660 nM
  TGI: 3110 nM
SF-539 CNS
  GI50: 1690 nM
  TGI: 3.15 µM

## Cc1ccc2c(c1)Oc1nc(N)c(C#N)c(N)c1C2Sc1ccc(F)cc1 (centres undefined)
U251 CNS
  GI50: 1170 nM
  TGI: 2490 nM
HOP-62 NSCLC
  GI50: 1620 nM
  TGI: 3.08 µM
SK-MEL-2 melanoma
  GI50: 1300 nM
  TGI: 2600 nM
MOLT-4 leukemia
  GI50: 306 nM
SF-295 CNS
  GI50: 1680 nM
  TGI: 3.07 µM
HL-60(TB) leukemia
  GI50: 242 nM
  TGI: 647 nM
KM12 colon
  GI50: 1480 nM
  TGI: 2.83 µM
K-562 leukemia
  GI50: 309 nM
  TGI: > 100 µM
SK-OV-3 ovarian
  GI50: 1.8 µM
  TGI: 3.29 µM
EKVX NSCLC
  GI50: 1220 nM
  TGI: 2470 nM
786-0 renal
  GI50: 1190 nM
  TGI: 2450 nM
SK-MEL-28 melanoma
  GI50: 1170 nM
  TGI: 2400 nM
RPMI-8226 leukemia
  GI50: 448 nM
  TGI: > 100 µM
OVCAR-4 ovarian
  GI50: 1450 nM
  TGI: 2780 nM
COLO 205 colon
  GI50: 1330 nM
  TGI: 2780 nM
SF-268 CNS
  GI50: 1230 nM
  TGI: 2520 nM
BT-549 breast
  GI50: 415 nM
  TGI: 1.71 µM
UO-31 renal
  GI50: 215 nM
  TGI: 1720 nM
NCI-H226 lung
  GI50: 1530 nM
  TGI: 4.16 µM
HCC-2998 colon
  GI50: 1510 nM
  TGI: 2920 nM
RXF 393 renal
  GI50: 611 nM
  TGI: 1690 nM
A498 renal
  GI50: 1450 nM
  TGI: 2.78 µM
HS 578T breast
  GI50: 1020 nM
  TGI: 4.22 µM
SNB-75 CNS
  GI50: 956 nM
  TGI: 2330 nM
SK-MEL-5 melanoma
  GI50: 1570 nM
  TGI: 2.95 µM
MALME-3M melanoma
  GI50: 992 nM
  TGI: 2340 nM
UACC-62 melanoma
  GI50: 1500 nM
  TGI: 2870 nM
OVCAR-8 ovarian
  GI50: 1300 nM
  TGI: 2610 nM
MDA-MB-435
  GI50: 1260 nM
  TGI: 2670 nM
HT29 colon
  GI50: 1820 nM
  TGI: 3430 nM
DU-145 prostate
  GI50: 1480 nM
  TGI: 2820 nM
HOP-92 NSCLC
  GI50: 1140 nM
  TGI: 2440 nM
UACC-257 melanoma
  GI50: 1290 nM
  TGI: 2580 nM
ACHN renal
  GI50: 1340 nM
  TGI: 2630 nM
A549 NSCLC
  GI50: 1550 nM
  TGI: 3.01 µM
TK-10 renal
  GI50: 2230 nM
  TGI: 3.7 µM
SF-539 CNS
  GI50: 1340 nM
  TGI: 2.63 µM
MCF7 breast
  GI50: 361 nM
  TGI: 1990 nM
SR leukemia
  GI50: 301 nM
  TGI: > 100 µM
NCI-H522 lung
  GI50: 785 nM
  TGI: 2100 nM
M14 melanoma
  GI50: 1440 nM
  TGI: 2850 nM
CCRF-CEM leukemia
  GI50: 201 nM
  TGI: > 100 µM
